Molecular target: protein kinase A activity associated with endogenous RXRα (Mus musculus, UniProt P28700)
Details: 3T3-L1 adipocytes, 10^-7 M, vs vehicle-treated cells
Protocol: Kinase activity was determined in the immunoprecipitate using kemptide (LRRASLG; SEQ ID NO: 59) as a substrate. Samples 1,3: 0.1% DMSO (10 minutes).
Kinase activity in the immunoprecipitates was determined as described above using γ-ATP and synthetic peptide SEQ ID NO: 59.

Sequence of protein kinase A activity associated with endogenous RXRα (P28700 whole entry): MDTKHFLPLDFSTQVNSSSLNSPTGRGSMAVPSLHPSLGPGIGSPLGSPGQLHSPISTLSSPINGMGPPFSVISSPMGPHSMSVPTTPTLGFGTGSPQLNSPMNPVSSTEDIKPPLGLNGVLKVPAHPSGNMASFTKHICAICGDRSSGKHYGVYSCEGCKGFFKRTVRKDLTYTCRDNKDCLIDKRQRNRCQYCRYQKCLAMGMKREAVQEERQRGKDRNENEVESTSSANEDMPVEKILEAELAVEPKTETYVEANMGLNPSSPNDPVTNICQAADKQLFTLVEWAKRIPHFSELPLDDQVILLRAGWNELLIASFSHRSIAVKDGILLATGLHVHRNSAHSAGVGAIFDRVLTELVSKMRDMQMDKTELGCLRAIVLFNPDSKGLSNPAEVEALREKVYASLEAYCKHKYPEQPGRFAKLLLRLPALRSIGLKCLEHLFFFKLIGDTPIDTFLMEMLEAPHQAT

SMILES: CC(/C=C/[C@@H]1C[C@]1(C)c1ccc2c(c1)C(C)(C)CCC2(C)C)=C\C(=O)O [AGN194204]
- PKA activity associated with endogenous RXRα: increased about two-fold

Reference: patent publication US20050130232A1, “Methods of screening for compounds that modulate hormone receptor activity” (Allergan, Inc., priority 2001, published 2005)
